From patent US11109591B2, “Single phase liquids of alkanolamine salts of dicamba” (Taminco BVBA, priority 2017, dated 2021) come the findings set out here.

Format in all cases: physicochemical
The nature of series [1]: Maximum loading of herbicide amine salt in water (HCl titration of amine, Karl-Fischer water). Particulars: glufosinate amine salts in water. The source says:
F is a factor that takes into account the amount of base or acid groups on the amine or acid, respectively.

Series [2] is described as follows: Density of max-load solutions at ambient temperature.
Series [3] is described as follows: 2 mL samples spotted onto glass plates, left uncovered at ambient conditions for approximately two months. The note with it: 2 mL on glass plate, 20°-25° C.
Description: To evaluate the herbicidal compositions under more stringent conditions, we increased their surface area and exposed them to ambient conditions at room temperature, atmospheric pressure, and uncovered over an extended period of time: 2 mL samples of the five liquefied combinations were spotted onto glass plates and left uncovered at ambient conditions (temperatures within a range of 20°-25° C.) for approximately two months.
The nature of series [4]: Storage in closed containers at ambient conditions for several months, visual phase check. Particulars: 20-25 C, atmospheric pressure. The source says: Behaviors inconsistent with a single phase liquid include liquid/liquid separation of layers, or liquid/solid striation, in each case noticeable as such to the unaided eye. […] The single phase liquid need not necessarily be a true solution in the physical sense but will appear to be a single phase to the unaided eye as described above.
The amine-herbicide formulations prepared in Examples 1, 2, 3, and 4 were stored in closed containers at ambient conditions (room temperature varying from 20-25 C, atmospheric pressure) for several months.

For the compound `CP(=O)(O)CCC(N)C(=O)O.N` (centres unmarked) [NH3/glufosinate], in series [1], the “Max Load amine” value is 1340 g/L and the “Max Load g ae/L” value came out at 1339 g ae/L.

Take `COc1c(Cl)ccc(Cl)c1C(=O)O` [MMEA/dicamba]: the “density of max-load solution” value in series [2] was determined as 1.31 g/mL. For the same compound, in series [3], the “physical state after open exposure on glass plate” value (shortened to “physical state after open exposure”) was “remained liquefied”. The “physical state after storage (visual presence of salt solids)” value (from here on “physical state after storage”) in series [4] is “formed single phase liquids”.

For `CCCCN(CCCC)CCCC.O=C(O)COc1ccc(Cl)cc1Cl` [TNBA/2,4-D], the “density of max-load solution” value in series [2] was 1.1 g/mL. Also, in series [3], the “physical state after open exposure” value is “turned into a crystallized mass”. For the same compound, the “physical state after storage” value in series [4] is listed as “formed single phase liquids”.

Regarding `CN(C)Cc1ccccc1.O=C(O)COc1ccc(Cl)cc1Cl` [BDMA/2,4-D], the “density of max-load solution” value in series [2] is 1.25 g/mL. In addition, the “physical state after open exposure” value in series [3] is “turned into a crystallized mass”. The “physical state after storage” value in series [4] is “formed single phase liquids”.
